We go through four compounds from PMC3596085 (International journal for parasitology, drugs and drug …, 2012).

Where two headings read alike, the source gives them in different places.

Series [1] concerns human CYP51. In words: Reconstitution of CYP51 activity in vitro. The conditions noted are these: 60′ reaction, lanosterol. The format is biochemical.
The test system of series [2] is NIH/3T3 mouse embryonic fibroblasts. In words: Growth inhibition assay using 5-bromodeoxyuridine incorporation. The conditions noted are these: 50 μM, 24 h treatment, BrdU incorporation, vs DMSO. The format is cell-based. On the technique in general: Uptake of a labelled nucleoside into DNA is a usual measure of proliferation.
Series [3] addresses T1, human CYP3A4 (Homo sapiens, UniProt P08684).
Series [4] deals with T. cruzi CYP51 (Trypanosoma cruzi, UniProt Q7Z1V1). The series is described as follows: CYP51 spectral titration. The format is binding.
Series [5] in a line: VNI oral pharmacokinetics in mouse plasma. In kind it is in vivo. The conditions noted are these: 25 mg/kg.
Series [6] is described as follows: Acute mice toxicity study. The format is in vivo, mouse. The conditions noted are these: female, Swiss Webster, mouse, in vivo, po.
In series [7] the test system is Female Swiss Webster mice. In words: Acute mice toxicity study. In kind it is in vivo, mouse. The conditions noted are these: oral, up to 400 mg/kg, up to 48 h.
Series [8] relates to T. cruzi CYP51. The conditions noted are these: standard CYP51 reaction conditions; ref Lepesheva et al., 2007; cited from earlier work.
The subject of a further series is T. brucei CYP51. The conditions noted are these: standard CYP51 reaction conditions; ref Lepesheva et al., 2007; cited from earlier work.
The subject of series [9] is human CYP51. The conditions noted are these: standard CYP51 reaction conditions; ref Lepesheva et al., 2008; cited from earlier work.
The test system of series [10] is T. cruzi CYP51 gene expression. The conditions noted are these: ref Lepesheva et al., 2010a; cited from earlier work.
The test system of the next series is Trypanosoma cruzi. The conditions noted are these: ref Villalta et al., submitted for publication; cited from earlier work.
For a further series, the system named is T. brucei. The conditions noted are these: ref Lepesheva et al., 2010b; cited from earlier work.
Series [11] deals with T1, human CYP3A4. The series is described as follows: Inhibitory effect on CYP3A4.
Series [12] is described as follows: Growth inhibition assay using 5-bromodeoxyuridine incorporation. In kind it is cell-based, mouse. The conditions noted are these: mouse.

T1 sequence (P08684 whole entry): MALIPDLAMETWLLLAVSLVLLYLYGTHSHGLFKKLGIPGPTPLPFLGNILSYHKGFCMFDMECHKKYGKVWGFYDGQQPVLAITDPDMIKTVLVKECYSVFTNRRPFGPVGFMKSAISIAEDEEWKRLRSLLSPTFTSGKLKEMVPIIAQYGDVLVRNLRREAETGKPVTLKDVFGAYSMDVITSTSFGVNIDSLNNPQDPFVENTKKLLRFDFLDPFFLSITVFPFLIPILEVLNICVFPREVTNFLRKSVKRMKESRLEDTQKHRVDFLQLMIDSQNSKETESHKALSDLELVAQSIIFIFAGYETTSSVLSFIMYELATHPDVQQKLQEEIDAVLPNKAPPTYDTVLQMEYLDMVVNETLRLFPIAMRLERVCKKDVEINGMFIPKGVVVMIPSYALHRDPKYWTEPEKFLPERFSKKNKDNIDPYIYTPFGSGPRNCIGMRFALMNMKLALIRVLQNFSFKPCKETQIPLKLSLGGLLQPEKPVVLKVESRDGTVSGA
Chain of T. cruzi CYP51 (Trypanosoma cruzi, UniProt Q7Z1V1) (Q7Z1V1 whole entry): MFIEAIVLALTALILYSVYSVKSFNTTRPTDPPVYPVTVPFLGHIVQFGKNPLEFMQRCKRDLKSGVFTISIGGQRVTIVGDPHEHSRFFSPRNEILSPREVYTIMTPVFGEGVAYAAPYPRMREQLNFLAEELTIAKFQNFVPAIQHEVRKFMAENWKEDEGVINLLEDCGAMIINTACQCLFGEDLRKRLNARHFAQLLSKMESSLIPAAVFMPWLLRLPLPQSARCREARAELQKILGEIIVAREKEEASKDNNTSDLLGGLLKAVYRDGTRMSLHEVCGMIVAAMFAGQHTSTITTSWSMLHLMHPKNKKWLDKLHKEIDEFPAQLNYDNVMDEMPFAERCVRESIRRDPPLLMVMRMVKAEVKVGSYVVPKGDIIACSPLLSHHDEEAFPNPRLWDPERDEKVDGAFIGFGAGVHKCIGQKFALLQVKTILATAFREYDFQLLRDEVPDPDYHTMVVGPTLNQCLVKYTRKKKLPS

As usually defined, the IC50 is the concentration that inhibits the measured activity by half. Read a low IC50 as inhibition by little substance. `O=C(N[C@H](Cn1ccnc1)c1ccc(Cl)cc1Cl)c1ccc(-c2nnc(-c3ccccc3)o2)cc1` (single isomer, unassigned) [VNI S-enantiomer]: the “CYP51 inhibition, Human (inhibitor/enzyme molar ratio for 50% inhibition)” value in the series with human CYP51 [1] was more than 200. Moreover, the “Mammalian cell growth: % of viable 3T3 cells at 50 μM” value (from here on “Mammalian cell growth: %”) in series [2] is listed as 77.1 ± 2.6%. 0.29 ± 0.019 µM corresponded to half-maximal inhibition at human CYP3A4 [3] (IC50).

In general, Kd refers to a measure of binding affinity in units of concentration. Lower therefore signals tighter binding. As a reminder, the NOAEL is the highest tested level that showed no adverse finding. As for `O=C(N[C@@H](Cn1ccnc1)c1ccc(Cl)cc1Cl)c1ccc(-c2nnc(-c3ccccc3)o2)cc1` [VNI, (R)-N-(1-(2,4-dichlorophenyl)-2-(1H-imidazol-1-yl)ethyl)-4-(5-phenyl-1,3,4-oxadiazol-2-yl)benzamide], the affinity on T. cruzi CYP51 [4], expressed as Kd, was 0.09 ± 0.01 µM. Further, the “CYP51 inhibition, Human (inhibitor/enzyme molar ratio for 50% inhibition)” value in the series on human CYP51 [1] was more than 200. Further, the “Mammalian cell growth: %” value in series [2] (50 µM) is listed as 76.8 ± 2.1%. In addition, in series [5], the concentration at 2 h was found to be 40 µM and the concentration at 8 h was more than 20 µM. Besides, in series [6], the no observed adverse effect level (NOAEL) at 48 h was 400 mg/kg. Moreover, in series [7], the mortality entry was “neither leads to mortality”. Also, the “inhibition of T. cruzi CYP51 activity at 1:1 molar ratio to the enzyme” value with T. cruzi CYP51 [8] is on record as “completely inhibit”. In addition, in the series with T. brucei CYP51, the “inhibition of T. brucei CYP51 activity at 1:1 molar ratio to the enzyme” value is listed as “completely inhibit”. Further, the “inhibition of the human CYP51 ortholog” value with human CYP51 [9] is “do not inhibit”. Besides, the “induction of T. cruzi CYP51 gene expression” value in [10] is on record as “do not induce”. Moreover, in the series on Trypanosoma cruzi, the “effect in the murine model of Chagas disease” value is “Curative effect”. Further, the “parasitemia in the mouse model of T. brucei infection” value in the series on T. brucei is recorded as “slows down parasitemia”. In addition, the 50% inhibitory concentration (IC50) against human CYP3A4 [11] came to 0.405 ± 0.023 µM.

The viability is the share of living cells, or the viability signal relative to a control. Low readings indicate a greater loss of cells, high ones better survival. In turn, `CC(=O)N1CCN(c2ccc(OCC3COC(Cn4ccnc4)(c4ccc(Cl)cc4Cl)O3)cc2)CC1` (stereo not drawn) [Ketoconazole, reference compound] displayed a viability at 24 h, 50 µM in [12] of 0%.

For the compound VNI/VNF combination, the “CYP51 inhibition, Human (inhibitor/enzyme molar ratio for 50% inhibition)” value with human CYP51 [1] was 15 ± 0.9. Further, the “Mammalian cell growth: %” value in [2] turned out to be 77.2 ± 6.3%. The compound further came in with a half-maximal inhibitory concentration (IC50) against human CYP3A4 [3] of 3.58 ± 0.271 µM.
